Reference: patent US20180353457A1, “ABIETANE DITERPENOID 7-ACETOXYROYLEANONES FOR USE IN CANCER TREATMENT” (University of South Carolina, priority 2017, published 2018)

How the values were obtained:
leukemia cell lines = test: NCI-60 one dose screen, leukemia cell lines; format: cell-based; conditions: 10 μM, each leukemia cell line
Procedure: (§1) One dose and five dose cytotoxicity screening was performed by the NCI-60 screening program of the National Institutes of Health (NIH), which is known in the art and available from the NIH. The NCI-60 panel is a collection of cancer cell lines, from various diverse tumors, which was developed in the 1980s by the National Cancer Institute to aid screening efforts for cytotoxic or cytostatic compounds.
(§2) In these screens, 60 cell lines, were utilized to determine the cytotoxic effect of small molecules, natural products, and other drug candidates. […]
(§3) The five dose screen was performed by creating four 10-fold dilutions of the highest concentration of the diluted 7-acetoxyroyleanone made in the same manner as the one dose screen. […] The bound stain was then dissolved in 10 mM trizma base and the absorbance was read using an automated plate reader at 515 nm. […]

[1] = tested on: MDA-MB-435 (melanoma) cells; test: NCI-60 five dose screen, MDA-MB-435; conditions: read-out: LC50; MDA-MB-435, Melanoma
[2] = tested on: NCI-60 panel of cancer cell lines; test: NCI-60 one dose screen, whole panel; format: cell-based; conditions: 10 μM, 48 hours
Procedure: as §1, §2, §3

`CC(=O)O[C@@H]1C[C@H]2C(C)(C)CCC[C@]2(C)C2=C1C(=O)C(C(C)C)=C(O)C2=O` [7-acetoxyroyleanone] was tested, and the “cell death versus growth inhibition” value (leukemia cell lines) was “did not appear to induce cell death, but rather growth inhibition”, the CC50 [1] was 5.87 µM and the “growth percent, average for all cell types screened” value [2] was −18.5%. The “growth inhibition of each cell line compared to the control” value ([2]; minimum over all cell lines) was “at least 72.88%”.
